The source made the active and inactive calls. The rule behind the calls is not given here.
Assays:
MDA-MB-231 = experiment: Antiproliferative activity against human MDA-MB-231 cells assessed as inhibition of cell growth measured after 48 hrs by MTT assay; type: functional, cell-based; conditions: MDA-MB-231, 48 h
MCF-10A = experiment: Cytotoxicity against human MCF-10A cells assessed as reduction in cell viability measured after 48 hrs by MTT assay; type: cell-based
MCF7 [1] = experiment: Potency index, ratio of scopoletin derivative 5 IC50 to test compound IC50 for human MCF7 cells assessed as inhibition of cell growth measured after 48 hrs by MTT assay; type: functional
MCF7 [2] = experiment: Inhibition of cell proliferation in human MCF7 cells assessed as increase in intracellular NO production at 25 uM measured after 2.5 hrs by nitric oxide assay; type: functional, cell-based
MCF7 [3] = experiment: Antiproliferative activity against human MCF7 cells assessed as inhibition of cell proliferation at 2 uM pretreated with hemoglobin NO scavenger for 2 hrs followed by addition of compound and measured after 48 hrs by MTT assay; type: functional, cell-based
MCF7 [4] = experiment: Induction of cell cycle arrest in human MCF7 cells assessed as accumulation of cells in G1 phase at 0.25 uM measured after 24 hrs by propidium iodide staining based flow cytometry analysis (Rvb= 54.96%); type: functional
MCF7 [5] = experiment: Induction of cell cycle arrest in human MCF7 cells assessed as accumulation of cells in S phase at 0.25 uM measured after 24 hrs by propidium iodide staining based flow cytometry analysis (Rvb= 25.71%); type: functional
MCF7 [6] = experiment: Induction of cell cycle arrest in human MCF7 cells assessed as accumulation of cells in G2 phase at 0.25 uM measured after 24 hrs by propidium iodide staining based flow cytometry analysis (Rvb= 18.5%); type: functional
MCF7 [7] = experiment: Induction of cell cycle arrest in human MCF7 cells assessed as accumulation of cells in G1 phase at 0.5 uM measured after 24 hrs by propidium iodide staining based flow cytometry analysis (Rvb= 54.96%); type: functional
MCF7 [8] = experiment: Induction of cell cycle arrest in human MCF7 cells assessed as accumulation of cells in S phase at 0.5 uM measured after 24 hrs by propidium iodide staining based flow cytometry analysis (Rvb= 25.71%); type: functional
MCF7 [9] = experiment: Induction of cell cycle arrest in human MCF7 cells assessed as accumulation of cells in G1 phase at 1 uM measured after 24 hrs by propidium iodide staining based flow cytometry analysis (Rvb= 54.96%); type: functional
MCF7 [10] = experiment: Induction of cell cycle arrest in human MCF7 cells assessed as accumulation of cells in G2 phase at 1 uM measured after 24 hrs by propidium iodide staining based flow cytometry analysis (Rvb= 18.5%); type: functional
MCF7 [11] = experiment: Induction of cell cycle arrest in human MCF7 cells assessed as accumulation of cells in sub G1 phase at 0.25 to 1 uM measured after 24 hrs by propidium iodide staining based flow cytometry analysis (Rvb= 21.1%); type: functional; conditions: dose 0.25-1 µM
MCF7 [12] = experiment: Inhibition of PI3K/AKT signalling pathway in human MCF7 cells assessed as reduction in PI3K expression at 0.5 to 2 uM measured after 24 hrs by western blot analysis; type: cell-based; conditions: dose 0.5-2 µM
MCF7 [13] = experiment: Inhibition of PI3K/AKT signalling pathway in human MCF7 cells assessed as reduction in AKT expression at 0.5 to 2 uM measured after 24 hrs by western blot analysis; type: cell-based; conditions: dose 0.5-2 µM
MCF7 [14] = experiment: Induction of apoptosis in human MCF7 cells assessed as live cells at 0.25 uM measured after 24 hrs by Annexin-V FITC/PI staining based flow cytometry analysis (Rvb= 93.0%); type: functional
MCF7 [15] = experiment: Induction of apoptosis in human MCF7 cells assessed as early apoptotic cells at 0.25 uM measured after 24 hrs by Annexin-V FITC/PI staining based flow cytometry analysis (Rvb= 1.33%); type: functional
MCF7 [16] = experiment: Induction of apoptosis in human MCF7 cells assessed as late apoptotic cells at 0.25 uM measured after 24 hrs by Annexin-V FITC/PI staining based flow cytometry analysis (Rvb= 5.61%); type: functional
MCF7 [17] = experiment: Induction of apoptosis in human MCF7 cells assessed as dead cells at 0.25 uM measured after 24 hrs by Annexin-V FITC/PI staining based flow cytometry analysis (Rvb= 0.06%); type: functional
MCF7 [18] = experiment: Induction of apoptosis in human MCF7 cells assessed as early apoptotic cells at 0.5 uM measured after 24 hrs by Annexin-V FITC/PI staining based flow cytometry analysis (Rvb= 1.33%); type: functional
MCF7 [19] = experiment: Induction of apoptosis in human MCF7 cells assessed as dead cells at 0.5 uM measured after 24 hrs by Annexin-V FITC/PI staining based flow cytometry analysis (Rvb= 0.06%); type: functional
MCF7 [20] = experiment: Induction of apoptosis in human MCF7 cells assessed as live cells at 1 uM measured after 24 hrs by Annexin-V FITC/PI staining based flow cytometry analysis (Rvb= 93.0%); type: functional
MCF7 [21] = experiment: Induction of apoptosis in human MCF7 cells assessed as early apoptotic cells at 1 uM measured after 24 hrs by Annexin-V FITC/PI staining based flow cytometry analysis (Rvb= 1.33%); type: functional
MCF7 [22] = experiment: Induction of apoptosis in human MCF7 cells assessed as late apoptotic cells at 1 uM measured after 24 hrs by Annexin-V FITC/PI staining based flow cytometry analysis (Rvb= 5.61%); type: functional
MCF7 [23] = experiment: Induction of apoptosis in human MCF7 cells assessed as upregulation of Bad expression at 0.5 to 2 uM measured after 24 hrs by western blot analysis; type: functional, cell-based; conditions: dose 0.5-2 µM
MCF7 [24] = experiment: Induction of apoptosis in human MCF7 cells assessed as downregulation of Bcl-2 expression at 0.5 to 2 uM measured after 24 hrs by western blot analysis; type: functional, cell-based; conditions: dose 0.5-2 µM
MCF7 [25] = experiment: Induction of apoptosis in human MCF7 cells assessed as increase in cleavage of PARP-1 at 0.5 to 2 uM measured after 24 hrs by western blot analysis; type: functional, cell-based; conditions: dose 0.5-2 µM
MCF7 [26] = experiment: Antitumor activity against human MCF7 cells xenografted in ip dosed BALB/c nude mouse assessed as tumor growth inhibition administered once every 2 days for 21 consecutive days; type: functional, organism-based; conditions: time 21.0 day
MCF7 [27] = experiment: Antitumor activity against human MCF7 cells xenografted in BALB/c nude mouse assessed as reduction in tumor volume at 30 mg/kg, ip administered once every 2 days for 21 consecutive days relative to control; type: functional; parameters: scale not given: the % may be the effect or the level left; conditions: time 21 day
MCF7 [28] = experiment: Antitumor activity against human MCF7 cells xenografted in BALB/c nude mouse assessed as tumor growth inhibition at 60 mg/kg, ip administered once every 2 days for 21 consecutive days relative to control; type: functional; conditions: 504 h, time 21 day, read-out: TGI
[29] = Toxicity in BALB/c mouse xenografted with human MCF7 cells assessed as effect on heart at 30 to 60 mg/kg, ip measured after 21 days by hematoxylin and eosin staining based histopathological analysis; type: organism-based; conditions: in vivo, 504 h, dose 30-60 mg/kg, time 21 day
[30] = Toxicity in BALB/c mouse xenografted with human MCF7 cells assessed as effect on lung at 30 to 60 mg/kg, ip measured after 21 days by hematoxylin and eosin staining based histopathological analysis; type: organism-based; conditions: in vivo, 504 h, dose 30-60 mg/kg, time 21 day
[31] = Toxicity in BALB/c mouse xenografted with human MCF7 cells assessed as effect on kidney at 30 to 60 mg/kg, ip measured after 21 days by hematoxylin and eosin staining based histopathological analysis; type: organism-based; conditions: in vivo, 504 h, dose 30-60 mg/kg, time 21 day

## COc1cc2cc(C(=O)NCc3ccc(F)cc3)c(=O)oc2cc1OCCCOc1no[n+]([O-])c1S(=O)(=O)c1ccccc1
MDA-MB-231
  IC50: 0.77 µM
MCF-10A
  IC50: 8.46 µM
MCF7 [1]
  Ratio IC50: 5
MCF7 [2]
  Activity: Active
MCF7 [3]
  Activity: inactive
MCF7 [4]
  Activity: 52.88%
MCF7 [5]
  Activity: 20.8%
MCF7 [6]
  Activity: 25.76%
MCF7 [7]
  Activity: 40.11%
MCF7 [8]
  Activity: 19.05%
MCF7 [9]
  Activity: 36.65%
MCF7 [10]
  Activity: 44.96%
MCF7 [11]
  Activity: 50%
MCF7 [12]
  inhibition: inactive
MCF7 [13]
  inhibition: inactive
MCF7 [14]
  Activity: 87.5%
MCF7 [15]
  Activity: 5.72%
MCF7 [16]
  Activity: 6.53%
MCF7 [17]
  Activity: 0.153%
MCF7 [18]
  Activity: 7.49%
MCF7 [19]
  Activity: 0.196%
MCF7 [20]
  Activity: 62%
MCF7 [21]
  Activity: 9.38%
MCF7 [22]
  Activity: 27.2%
MCF7 [23]
  Activity: Active
MCF7 [24]
  Activity: Dose-Dependent Effect
MCF7 [25]
  Activity: Active
MCF7 [26]
  Activity: Dose-Dependent Effect
MCF7 [27]
  Activity: 63.3%
MCF7 [28]
  inhibition in vivo at 60 mg/kg: 75.2%
[29]
  Activity: Non-Toxic
[30]
  Activity: Non-Toxic
[31]
  Activity: Non-Toxic

From ChEMBL document CHEMBL4842344, “Design, synthesis and biological activity evaluation of novel scopoletin-NO donor derivatives against MCF-7 human breast cancer in vitro and in vivo” (Eur J Med Chem, 2021)
